Results from patent publication EP1247803A2, “Indolinone compounds suitable for modulation of protein kinases” (Sugen, Inc., priority 1996, dated 1998).

How the values were obtained:
EGFR = biological target: T1, EGFR (Homo sapiens, UniProt P00533); assay: EGFR ELISA assay (in vitro kinase activity, EGFR captured from A431 cell lysate); type: biochemical; set-up: concentration or dose not given beside the values
T1 construct: Add 7 ug A431 cell lysate per well (EGFR source); endogenous in cells; host or cells: A431
Summary of the method: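 Receptor autophosphorylation was read by ELISA: anti-phosphotyrosine serum and an HRP-linked secondary with ABTS substrate, absorbance at 410 nm (reference 630 nm). The reaction ran 5 min with 3 µM ATP and 5 mM MnCl2 and was quenched by 20 mM EDTA. Compounds were first incubated 30 min with antibody-captured EGFR from A431 cell lysate.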

MET = MET biochemical kinase assay; set-up: species or system human; concentration or dose not given beside the values
Summary of the method: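 Capture ELISA: anti-rabbit Fc coat, rabbit anti-MET cytoplasmic domain pAb, lysate MET captured, washed. Compound + kinase buffer (ATP, divalent metals). Readout anti-pTyr-HRP/TMB, colorimetric.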

T1 sequence (P00533 25-1210): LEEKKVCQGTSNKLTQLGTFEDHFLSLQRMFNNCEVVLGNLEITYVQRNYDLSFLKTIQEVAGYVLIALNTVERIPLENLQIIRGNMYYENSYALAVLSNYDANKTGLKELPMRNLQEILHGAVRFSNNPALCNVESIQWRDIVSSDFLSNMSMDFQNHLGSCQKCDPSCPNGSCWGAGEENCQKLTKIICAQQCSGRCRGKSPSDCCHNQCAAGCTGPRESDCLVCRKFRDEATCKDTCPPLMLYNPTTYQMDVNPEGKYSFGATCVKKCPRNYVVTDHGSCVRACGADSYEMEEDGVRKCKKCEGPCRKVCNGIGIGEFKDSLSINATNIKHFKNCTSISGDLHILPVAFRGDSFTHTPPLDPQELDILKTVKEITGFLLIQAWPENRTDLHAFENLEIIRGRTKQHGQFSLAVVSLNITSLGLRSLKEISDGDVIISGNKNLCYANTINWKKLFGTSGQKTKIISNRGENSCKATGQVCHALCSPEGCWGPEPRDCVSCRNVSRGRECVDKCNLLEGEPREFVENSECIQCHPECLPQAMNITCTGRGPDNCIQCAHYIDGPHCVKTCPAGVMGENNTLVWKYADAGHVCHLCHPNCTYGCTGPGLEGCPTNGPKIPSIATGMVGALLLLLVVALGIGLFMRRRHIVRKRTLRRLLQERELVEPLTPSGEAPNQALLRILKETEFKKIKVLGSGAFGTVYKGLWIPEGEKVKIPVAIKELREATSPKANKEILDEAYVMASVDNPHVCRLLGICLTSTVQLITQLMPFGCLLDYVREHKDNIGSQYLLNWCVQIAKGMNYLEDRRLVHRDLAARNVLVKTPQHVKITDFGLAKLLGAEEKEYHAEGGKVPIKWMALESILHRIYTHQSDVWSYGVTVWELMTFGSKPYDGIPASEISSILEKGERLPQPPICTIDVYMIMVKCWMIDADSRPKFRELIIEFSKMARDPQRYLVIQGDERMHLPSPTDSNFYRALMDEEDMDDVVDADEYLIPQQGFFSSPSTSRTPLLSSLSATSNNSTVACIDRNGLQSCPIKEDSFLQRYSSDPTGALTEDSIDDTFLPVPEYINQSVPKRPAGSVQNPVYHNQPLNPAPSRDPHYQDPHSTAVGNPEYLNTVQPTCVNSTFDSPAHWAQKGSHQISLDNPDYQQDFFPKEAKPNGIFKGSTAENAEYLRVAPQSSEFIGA

Structure (SMILES)	Biochem EGFR %Inhibition (EGFR) [%]	Met Kinase % Inhibition (MET) [%]
O=C1Nc2c(Br)cc(Br)cc2C1=Cc1ccc(Cl)s1 [10721/A07]	35.2	29.7
CNS(=O)(=O)c1ccc2c(c1)C(=Cc1ccc(SC)s1)C(=O)N2 [10720/D07]	14.8	36.2
Cc1c(Br)ccc2c1C(=Cc1nn(C)cc1Cl)C(=O)N2 [10721/C03]	64.6	6.2
COc1cc(O)ccc1C=C1C(=O)Nc2ccc(S(=O)(=O)Nc3ccc(C(F)(F)F)cc3)cc21 [10720/E03]	54.4	54.9
O=C1Nc2ccc(S(=O)(=O)N3CCOCC3)cc2C1=Cc1ccccc1 [10720/F06]	-24.3	21.9
Cc1cc(C)c(C=C2C(=O)Nc3c(Br)cc(Br)cc32)[nH]1 [10721/A08]	24.0	29.9
CC(C)(C)c1cc(C=C2C(=O)Nc3ccc(I)cc32)cc(Br)c1O [10721/B10]	42.9	30.4
CC(C)(C)c1cc(C=C2C(=O)Nc3ccc(I)cc32)cc(C(C)(C)C)c1O [10721/B11]	34.6	6.7
Cc1cc(C)c(C=C2C(=O)Nc3ccc(Br)c(C)c32)[nH]1 [10721/C08]	38.3	24.8
Cc1c(Br)ccc2c1C(=Cc1cc3c([nH]1)CCCC3)C(=O)N2 [10721/C05]	68.1	48.7
CNS(=O)(=O)c1ccc2c(c1)C(=Cc1nn(C)cc1Cl)C(=O)N2 [10721/D03]	11.6	19.5
CCOc1cc(C=C2C(=O)Nc3ccc(S(=O)(=O)N4CCOCC4)cc32)ccc1O [10720/F09]	6.4	49.2
COc1cc(O)ccc1C=C1C(=O)Nc2ccc(S(=O)(=O)N3CCOCC3)cc21 [10720/F03]	7.1	44.1
COc1ccc(O)c(C=C2C(=O)Nc3ccc(S(=O)(=O)Nc4ccc(C(F)(F)F)cc4)cc32)c1 [10720/E10]	49.1	23.1
CNS(=O)(=O)c1ccc2c(c1)C(=Cc1cc3c([nH]1)CCCC3)C(=O)N2 [10721/D05]	47.0	91.9
Cn1c(C=C2C(=O)Nc3c(Br)cc(Br)cc32)nc2ccccc21 [10721/A02]	17.8	41.1
CNS(=O)(=O)c1ccc2c(c1)C(=Cc1ccccc1O)C(=O)N2 [10720/D05]	-24.1	9.8
CC(C)(C)c1cc(C=C2C(=O)Nc3c(Br)cc(Br)cc32)cc(C(C)(C)C)c1O [10721/A11]	24.6	23.9
CCOc1cc(C=C2C(=O)Nc3ccc(S(=O)(=O)Nc4ccc(C(F)(F)F)cc4)cc32)ccc1O [10720/E09]	56.4	43.4
O=C1Nc2ccc(S(=O)(=O)N3CCOCC3)cc2C1=Cc1ccccc1O [10720/F05]	-14.2	39.8

Structure (SMILES)	Biochem EGFR %Inhibition (EGFR) [%]	Met Kinase % Inhibition (MET) [%]
Cn1cc(Cl)c(C=C2C(=O)Nc3c(Br)cc(Br)cc32)n1 [10721/A03]	25.5	56.2
Cc1c(Br)ccc2c1C(=Cc1ccc[nH]1)C(=O)N2 [10717/C09]	8.1	47.7
CSc1ccc(C=C2C(=O)Nc3ccc(S(=O)(=O)N4CCOCC4)cc32)s1 [10720/F07]	35.2	64.6
COc1ccc(C=C2C(=O)Nc3ccc(S(=O)(=O)Nc4ccc(C(F)(F)F)cc4)cc32)cc1OC [10720/E04]	-2.7	46.7
COc1ccc(O)c(C=C2C(=O)Nc3ccc(CCCl)cc32)c1 [10720/G10]	20.4	55.9
CNS(=O)(=O)c1ccc2c(c1)C(=Cc1ccc(O)c(C(C)(C)C)c1)C(=O)N2 [10721/D09]	15.3	-4.9
O=C1Nc2c(Br)cc(Br)cc2C1=Cc1cc([N+](=O)[O-])cc(CCl)c1O [10721/A06]	32.7	81.3
Cc1c(Br)ccc2c1C(=Cc1ccc(Cl)s1)C(=O)N2 [10721/C07]	24.6	25.7
CNS(=O)(=O)c1ccc2c(c1)C(=Cc1cc(OC)ccc1O)C(=O)N2 [10720/D10]	-10.2	51.0
Cc1cc(O)cc(O)c1C=C1C(=O)Nc2ccc(CCCl)cc21 [10720/G08]	-9.5	26.7
O=C1Nc2ccc(S(=O)(=O)Nc3ccc(C(F)(F)F)cc3)cc2C1=Cc1ccccc1 [10720/E06]	30.1	33.1
Cc1c(Br)ccc2c1C(=Cc1ccc(Br)cc1)C(=O)N2 [10717/C08]	24.3	27.3
CCOc1cc(C=C2C(=O)Nc3ccc(S(=O)(=O)NC)cc32)ccc1O [10720/D09]	2.4	62.8
Cc1cc(C=C2C(=O)Nc3c(Br)cc(Br)cc32)sc1C [10721/A04]	59.0	85.0
CNS(=O)(=O)c1ccc2c(c1)C(=Cc1ccc(OC)c(OC)c1)C(=O)N2 [10720/D04]	-7.7	23.6
CNS(=O)(=O)c1ccc2c(c1)C(=Cc1ncc[nH]1)C(=O)N2 [10720/D11]	-5.5	23.9
Cc1c(Br)ccc2c1C(=Cc1ccc(F)cc1)C(=O)N2 [10717/C05]	13.1	44.6
Cc1cc(O)cc(O)c1C=C1C(=O)Nc2ccc(S(=O)(=O)N3CCOCC3)cc21 [10720/F08]	-39.6	36.2
CC(C)(C)c1cc(C=C2C(=O)Nc3c(Br)cc(Br)cc32)cc(Br)c1O [10721/A10]	31.1	68.9
CC(C)(C)c1cc(C=C2C(=O)Nc3ccc(I)cc32)ccc1O [10721/B09]	38.9	28.3

Structure (SMILES)	Biochem EGFR %Inhibition (EGFR) [%]	Met Kinase % Inhibition (MET) [%]
Cc1c(Br)ccc2c1C(=Cc1cc([N+](=O)[O-])cc(CCl)c1O)C(=O)N2 [10721/C06]	80.2	56.4
CCOc1ccccc1C=C1C(=O)Nc2c(Br)cc(Br)cc21 [10717/A02]	24.3	46.1
O=C1Nc2ccc(CCCl)cc2C1=Cc1ccccc1O [10720/G05]	27.0	37.0
Cc1c(Br)ccc2c1C(=Cc1cc(C(C)(C)C)c(O)c(C(C)(C)C)c1)C(=O)N2 [10721/C11]	14.1	3.7
COc1ccc(O)c(C=C2C(=O)Nc3ccc(S(=O)(=O)N4CCOCC4)cc32)c1 [10720/F10]	6.0	42.8
CNS(=O)(=O)c1ccc2c(c1)C(=Cc1nc3ccccc3n1C)C(=O)N2 [10721/D02]	21.5	22.5
CNS(=O)(=O)c1ccc2c(c1)C(=Cc1ccccc1)C(=O)N2 [10720/D06]	-35.0	31.8
CSc1ccc(C=C2C(=O)Nc3ccc(S(=O)(=O)Nc4ccc(C(F)(F)F)cc4)cc32)s1 [10720/E07]	55.1	30.3
COc1ccc(C=C2C(=O)Nc3ccc(S(=O)(=O)N4CCOCC4)cc32)cc1OC [10720/F04]	-11.7	43.1
O=C1Nc2ccc(S(=O)(=O)N3CCOCC3)cc2C1=Cc1c(F)cc(F)cc1F [10720/F02]	-19.3	17.8
CC(C)(C)c1cc(C=C2C(=O)Nc3c(Br)cc(Br)cc32)ccc1O [10721/A09]	28.0	23.0
Cc1cc(C)c(C=C2C(=O)Nc3ccc(I)cc32)[nH]1 [10721/B08]	64.0	64.5
O=C1Nc2ccc(CCCl)cc2C1=Cc1ccccc1 [10720/G06]	-10.4	21.6
COc1ccc(C=C2C(=O)Nc3ccc(CCCl)cc32)cc1OC [10720/G04]	-34.1	5.0
Cc1c(Br)ccc2c1C(=Cc1cc(Br)c(O)c(C(C)(C)C)c1)C(=O)N2 [10721/C10]	17.4	44.6
Cc1cc(O)cc(O)c1C=C1C(=O)Nc2ccc(S(=O)(=O)Nc3ccc(C(F)(F)F)cc3)cc21 [10720/E08]	37.4	55.1
Cc1c(Br)ccc2c1C(=Cc1ccc(O)c(C(C)(C)C)c1)C(=O)N2 [10721/C09]	39.8	-4.7
Cc1c(Br)ccc2c1C(=Cc1cccn1C)C(=O)N2 [10717/C04]	14.4	25.0
COc1cc(O)ccc1C=C1C(=O)Nc2ccc(CCCl)cc21 [10720/G03]	10.0	42.1
O=C1Nc2ccc(I)cc2C1=Cc1cc2c([nH]1)CCCC2 [10721/B05]	76.8	70.8
